Experimental data as given in patent publication EP0972764A1, “Aminoalcohols and aminoketones as CNS active agents” (Universita Degli Studi di Firenze, priority 1998, dated 2000).
One block for each molecule: values may come before it.

Legend:
[1] = biological target: T1, S2 (Serotonine) receptors (Rattus norvegicus, UniProt P14842); experiment: In vitro inhibition of 3H-spiperone binding, S2 assay (rat brain membranes)
T1 construct: preparation of rat brain membrane enriched in D2 (Dopamine) or S2 (Serotonine) receptors; from tissue; host or cells: rat brain membranes
Experimental: The compounds I, prepared according to the present invention, were tested in vitro on preparation of rat brain membrane enriched in D2 (Dopamine) or S2 (Serotonine) receptors accordingly known methods to perform inhibition experiments of the binding of ^3H-receptors ligands. For the S2 receptor assay the method described by List and Seeman (List S.J. and Seeman P. Proc. Natl. Acad. Sci. USA. 78:2620-2624, 1981) was used with slight adaptations.

D2 (Dopamine) receptors = biological target: T2, D2 (Dopamine) receptors (Rattus norvegicus, UniProt P61169); experiment: In vitro inhibition of 3H-spiperone binding, D2 assay (rat brain membranes)
T2 construct: preparation of rat brain membrane enriched in D2 (Dopamine) or S2 (Serotonine) receptors; from tissue; host or cells: rat brain membranes
Experimental: The compounds I, prepared according to the present invention, were tested in vitro on preparation of rat brain membrane enriched in D2 (Dopamine) or S2 (Serotonine) receptors accordingly known methods to perform inhibition experiments of the binding of ^3H-receptors ligands.
For the D2 assays the method described by Ferretti et al. (Life Sci 42(24):2457-65, 1988) was used.

[2] = First pass cerebral extraction in the rat (blood brain barrier crossing of radiolabelled compound); type: in vivo; details: intracardiac injection, physiological rCBF range 0.8-1 ml/min/g
Experimental: Compounds I, prepared according to the present invention and containing radioactive isotopes were tested inrespect of their capacity to cross the brain blood barrier, since CNS receptors tracers should be able to pass through the intact blood brain barrier following intravenous injection.
Measures of the rat brain extraction of the compounds was determined following known procedures based on the use of labelled reference substances with known extraction.
In the rat the first pass cerebral extraction of N-benzyl-3-(4-fluoro-2-^125I-iodo-fenil)-hydroxypropylamine [compound I with R1 = H and R2 = Benzyl, Q = single bond Wn = 2-^125I, 4-F, n = 2, A = OH, m = 0, a = single bond] was evaluated measuring the radioactive compounds concentration in the brain, after an intracardiac injection of a mixture of the tested compound, a completely extracted tracer, as the albumin microspheres labelled with ^99mTc (undergoing to a sort of entrapment in the brain microvasculature) and a non extracted tracer as the sodium salt of hortoiodoippuric acid.

T1 sequence (P14842 whole entry): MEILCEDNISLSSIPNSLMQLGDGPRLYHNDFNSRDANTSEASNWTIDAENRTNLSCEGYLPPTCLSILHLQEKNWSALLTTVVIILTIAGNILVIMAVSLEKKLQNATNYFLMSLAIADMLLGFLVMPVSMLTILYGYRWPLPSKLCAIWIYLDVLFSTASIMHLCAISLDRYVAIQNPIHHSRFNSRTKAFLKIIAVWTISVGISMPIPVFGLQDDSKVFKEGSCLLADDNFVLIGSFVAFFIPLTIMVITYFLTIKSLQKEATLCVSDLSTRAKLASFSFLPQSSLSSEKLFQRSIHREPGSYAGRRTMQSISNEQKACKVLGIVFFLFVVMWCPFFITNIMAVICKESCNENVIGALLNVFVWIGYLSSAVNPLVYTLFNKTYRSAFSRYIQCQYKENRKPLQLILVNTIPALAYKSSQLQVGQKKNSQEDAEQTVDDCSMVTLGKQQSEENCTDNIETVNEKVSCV
T2 sequence (P61169 whole entry): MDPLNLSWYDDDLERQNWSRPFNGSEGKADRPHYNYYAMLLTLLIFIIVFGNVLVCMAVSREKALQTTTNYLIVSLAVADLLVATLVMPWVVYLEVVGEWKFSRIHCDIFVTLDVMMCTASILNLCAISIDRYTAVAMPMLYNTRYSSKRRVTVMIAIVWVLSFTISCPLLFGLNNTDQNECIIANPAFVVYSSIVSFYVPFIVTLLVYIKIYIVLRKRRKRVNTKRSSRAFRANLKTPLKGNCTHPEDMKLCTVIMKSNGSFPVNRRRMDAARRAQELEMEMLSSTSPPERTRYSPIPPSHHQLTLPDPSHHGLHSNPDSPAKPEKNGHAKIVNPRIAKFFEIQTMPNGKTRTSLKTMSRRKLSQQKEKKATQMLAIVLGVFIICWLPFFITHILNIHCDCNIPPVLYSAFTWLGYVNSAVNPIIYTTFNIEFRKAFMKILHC

Molecule: 2-[3-(4-fluorophenyl)-3-oxopropyl]-tetrahydro-2H-isoindole
binding affinity, column T1 ([1]; compounds at 10 µM concentration, rat brain membrane, unit not given, column head T1, text says S2): 65 | binding affinity towards D2 receptors (column D2) (D2 (Dopamine) receptors; compounds at 10 µM concentration, rat brain membrane, unit not given): 12

IC50 ([1]; inhibition of ^3H-spiperone binding, S2 assay, tested in its racemic form): 18.7 µM | IC50 (D2 (Dopamine) receptors; inhibition of ^3H-spiperone binding, D2 assay, tested in its racemic form): 34 µM
Molecule: OC(CCNCc1ccccc1)c1ccc(F)cc1Br (racemic) [N-benzyl-3-(2-bromo-4-fluorophenyl)-3-hydroxypropylamine]

cerebral tissue extraction fraction [2]: about 50%
Molecule: OC(CCNCc1ccccc1)c1ccc(F)cc1[125I] (centres unmarked) [N-benzyl-3-(4-fluoro-2-^125I-iodo-fenil)-hydroxypropylamine]
